Data: ChEMBL document CHEMBL4622971, “The Optimization of a Novel, Weak Bromo and Extra Terminal Domain (BET) Bromodomain Fragment Ligand to a Potent and Selective Second Bromodomain (BD2) Inhibitor” (J Med Chem, 2020)
One block for each compound: values may come before it.

How the values were obtained:
[1] = Distribution coefficient, logD of the compound at pH 7.4 by chromatography; assay type: physicochemical
[2] = Intrinsic clearance in rat hepatocytes at 0.5 uM incubated for 60 mins by LC-MS/MS analysis; assay type: ADME, cell-based, Hepatocyte; details: 1 h
[3] = Volume of distribution at steady state in male Wistar Han rat at 1 mg/kg, iv measured up to 7 hrs by LC-MS/MS analysis; assay type: ADME, organism-based; details: in vivo, read-out: Vdss
[4] = Oral bioavailability in male Wistar Han rat at 3 mg/kg measured up to 7 hrs by LC-MS/MS analysis; assay type: ADME, organism-based; details: in vivo
[5] = Intrinsic clearance in dog hepatocytes at 0.5 uM incubated for 120 mins by LC-MS/MS analysis; assay type: ADME, cell-based, Canis lupus familiaris, Hepatocyte; details: 2 h
[6] = Intrinsic clearance in human hepatocytes at 0.5 uM incubated for 120 mins by LC-MS/MS analysis; assay type: ADME, cell-based, Hepatocyte; details: 2 h
[7] = Half life in male Wistar Han rat at 1 mg/kg, iv measured up to 7 hrs by LC-MS/MS analysis; assay type: ADME, organism-based; details: in vivo
[8] = Blood clearance in male Wistar Han rat at 1 mg/kg, iv measured up to 7 hrs by LC-MS/MS analysis; assay type: ADME, organism-based; details: whole blood
[9] = Dose normalized AUC in male Wistar Han rat at 3 mg/kg, po measured up to 7 hrs by LC-MS/MS analysis; assay type: ADME, organism-based; details: in vivo
[10] = Half life in male Wistar Han rat at […], iv measured up to 7 hrs by LC-MS/MS analysis; details: in vivo
[11] = Blood clearance in male Wistar Han rat at […], iv measured up to 7 hrs by LC-MS/MS analysis; details: whole blood
[12] = Volume of distribution at steady state in male Wistar Han rat at […], iv measured up to 7 hrs by LC-MS/MS analysis; details: in vivo, read-out: Vdss
[13] = Intrinsic clearance in Wistar Han rat liver microsomes at 0.5 uM pre-incubated up to 45 mins before NADPH addition by LC-MS/MS analysis; assay type: ADME, Microsome
[14] = Intrinsic clearance in human liver microsomes at 0.5 uM pre-incubated up to 45 mins before NADPH addition by LC-MS/MS analysis; assay type: ADME, Microsome
[15] = Blood clearance in beagle dog at 10.5 mg/kg, iv measured up to 7 hrs by LC-MS/MS analysis; assay type: ADME, organism-based, Canis lupus familiaris; details: whole blood
[16] = Oral bioavailability in beagle dog at 10.5 mg/kg, iv measured up to 7 hrs by LC-MS/MS analysis; assay type: ADME, organism-based, Canis lupus familiaris; details: in vivo
[17] = Half life in beagle dog at 10.5 mg/kg, iv measured up to 7 hrs by LC-MS/MS analysis; assay type: ADME, organism-based, Canis lupus familiaris; details: in vivo
[18] = Volume of distribution at steady state in beagle dog at 10.5 mg/kg, iv measured up to 7 hrs by LC-MS/MS analysis; assay type: ADME, organism-based, Canis lupus familiaris; details: in vivo, read-out: Vdss

SMILES: CNC(=O)c1cc(C(=O)NC2CC2)cn(Cc2ccc(OC)cc2)c1=O
- chromatographic logD [1]: 3

SMILES: CNC(=O)c1cc(C(=O)NC2CC2)cn(Cc2cccc3cn[nH]c23)c1=O
- chromatographic logD [1]: 2.2

SMILES: CNC(=O)c1cc(C(=O)NC2CCC2)cn(Cc2ccccn2)c1=O
- chromatographic logD [1]: 2.2

SMILES: CNC(=O)c1cc(C(=O)NC2CC2)cn(Cc2cccc3c2CCN3)c1=O
- CLH [2]: < 0.8 mL/min/g
- Vd [3]: 0.9 L/kg
- bioavailability [4]: 53%
- CLH [5]: < 1.26 mL/min/g
- CLH [6]: < 0.45 mL/min/g
- half-life [7]: 36 min
- clearance [8]: 0.96 L/h/kg
- chromatographic logD [1]: 2.1

SMILES: CNC(=O)c1cc(C(=O)NCCC(C)C)cn(Cc2ccccc2)c1=O
- chromatographic logD [1]: 4.8

SMILES: CNC(=O)c1cc(C(=O)NC(C)C)cn(Cc2ccccc2)c1=O
- chromatographic logD [1]: 3.6

SMILES: CNC(=O)c1cc(C(=O)NC2CC2)cn(CC2CCCCO2)c1=O (racemic)
- chromatographic logD [1]: 2.6

SMILES: CNC(=O)c1cc(C(=O)NC2CC2)cn(CC2CCCOC2)c1=O (racemic)
- chromatographic logD [1]: 2

SMILES: CNC(=O)c1cc(C(=O)NC2CCC2)cn(Cc2ccccc2)c1=O
- chromatographic logD [1]: 3.8

SMILES: CNC(=O)c1cc(C(=O)NC2CC2)cn(CC2CCCCC2)c1=O
- chromatographic logD [1]: 4

SMILES: CNC(=O)c1cc(C(=O)NC2CC2)cn(Cc2ccc3nc[nH]c3c2)c1=O
- chromatographic logD [1]: 1.2

SMILES: CNC(=O)c1cc(C(=O)NC2CC2)cn(Cc2cccc(F)c2)c1=O
- chromatographic logD [1]: 3.2

SMILES: CNC(=O)c1cc(C(=O)NCCO)cn(Cc2ccccc2)c1=O
- chromatographic logD [1]: 1.9

SMILES: CNC(=O)c1cc(C(=O)NC2CCOCC2)cn(Cc2ccccc2)c1=O
- chromatographic logD [1]: 2.8

SMILES: CNC(=O)c1cc(C(=O)NC2CC2)cn(Cc2ccc(C)cc2)c1=O
- chromatographic logD [1]: 3.5

SMILES: CNC(=O)c1cc(C(=O)NCCC2CCOCC2)cn(Cc2ccccc2)c1=O
- chromatographic logD [1]: 3.6

SMILES: CNC(=O)c1cc(C(=O)NCC(C)C)cn(Cc2ccccc2)c1=O
- chromatographic logD [1]: 4.3

- chromatographic logD [1]: 1.6
SMILES: CNC(=O)c1ccc(=O)n(Cc2ccccc2)c1

SMILES: CNC(=O)c1cc(C(=O)NC2CC2)c(C)n(Cc2ccccc2)c1=O
- chromatographic logD [1]: 2.9

SMILES: CNC(=O)c1cc(C(=O)NCCC2CCCNC2)cn(Cc2ccccc2)c1=O (stereo not drawn)
- chromatographic logD [1]: 1.6

SMILES: CNC(=O)c1cc(C(=O)NC2CC2)cn(Cc2cccc3[nH]ncc23)c1=O
- CLH [2]: < 0.8 mL/min/g
- Vd [3]: 1.2 L/kg
- bioavailability [4]: 14%
- CLH [6]: < 0.45 mL/min/g
- half-life [7]: 24 min
- clearance [8]: 2.52 L/h/kg
- chromatographic logD [1]: 1.5

SMILES: CNC(=O)c1cccn(Cc2ccccc2)c1=O
- chromatographic logD [1]: 3

SMILES: CNC(=O)c1cc(C(=O)NC2CC2)cn(Cc2cccc([C@@H](C)O)c2)c1=O
- CLH [2]: 3 mL/min/g
- Vd [3]: 1.7 L/kg
- CLH [5]: < 1.26 mL/min/g
- CLH [6]: < 0.45 mL/min/g
- half-life [7]: 24 min
- clearance [8]: 4.44 L/h/kg
- chromatographic logD [1]: 2.2

SMILES: CNC(=O)c1cc(C(=O)NC2CC2)cn(Cc2cccc3[nH]ccc23)c1=O
- CLH [2]: 1.66 to 1.7 mL/min/g
- Vd [3]: 1.3 L/kg
- CLH [5]: < 1.26 mL/min/g
- AUC/dose [9]: 23.6 kg·min/L
- CLH [6]: < 0.45 mL/min/g
- half-life [7]: 48 min
- clearance [8]: 1.38 L/h/kg
- chromatographic logD [1]: 2.9

- half-life at 7 h [10]: 24 min
- clearance at 7 h [11]: 4.32 L/h/kg
- CLH [2]: 1.5 mL/min/g
- CLH [6]: < 0.87 mL/min/g
- chromatographic logD [1]: 3.5
- Vd at 7 h [12]: 1.6 L/kg
SMILES: CNC(=O)c1cc(C(=O)NC2CC2)cn([C@H](C)c2ccccc2)c1=O

SMILES: CNC(=O)c1cc(C(=O)NC2CCC2)cn(Cc2cccnc2)c1=O
- chromatographic logD [1]: 1.8

SMILES: CCNC(=O)c1cccn(Cc2ccccc2)c1=O
- chromatographic logD [1]: 3.7

SMILES: CNC(=O)c1cc(C(=O)NC2CC2)cn(Cc2ccccc2F)c1=O
- chromatographic logD [1]: 3

- CLH [13]: 0.76 mL/min/g
- CLH [14]: 0.53 mL/min/g
- chromatographic logD [1]: 2.6
SMILES: CNC(=O)c1ccc(=O)n(Cc2cc(Br)ccc2F)c1

SMILES: CNC(=O)c1cc(C(=O)NC2CCC2)cn(Cc2cccc(NC)c2)c1=O
- chromatographic logD [1]: 3.6

SMILES: CNC(=O)c1cc(C(=O)NC2CC2)cn(Cc2cccc(C)c2)c1=O
- chromatographic logD [1]: 3.6

SMILES: CNC(=O)c1cc(C(=O)NC2CC2)cn(Cc2cccc3[nH]c(C)nc23)c1=O
- chromatographic logD [1]: 1.5

SMILES: CNC(=O)c1cc(C(=O)NC2CC2)cn(Cc2cccc3occc23)c1=O
- chromatographic logD [1]: 3.4

SMILES: CNC(=O)c1cc(C(=O)NC2CC2)cn(Cc2cccc(CCN3CCOCC3)c2)c1=O
- chromatographic logD [1]: 2.3

SMILES: CNC(=O)c1cc(C(=O)NC2CC2)cn(Cc2cccc3cc[nH]c23)c1=O
- chromatographic logD [1]: 3.7

SMILES: CNC(=O)c1cc(C(=O)NCCOC)cn(Cc2ccccc2)c1=O
- chromatographic logD [1]: 2.7

SMILES: CNC(=O)c1cc(C(N)=O)cn(Cc2ccccc2)c1=O
- chromatographic logD [1]: 2

SMILES: CNC(=O)c1cc(C(=O)NC2CC2)cn(Cc2ccccc2)c1=O [GSK620]
- clearance [15]: 0.12 L/h/kg
- CLH [2]: 0.95 mL/min/g
- Vd [3]: 0.8 L/kg
- bioavailability [4]: 67%
- CLH [5]: < 1.26 mL/min/g
- bioavailability [16]: 57%
- half-life [17]: 342 min
- CLH [6]: < 0.45 mL/min/g
- half-life [7]: 66 min
- Vd [18]: 1 L/kg
- clearance [8]: 0.72 L/h/kg
- chromatographic logD [1]: 3.1

SMILES: CNC(=O)c1cc(C(=O)NC2CC2)cn(Cc2nccc3[nH]ccc23)c1=O
- chromatographic logD [1]: 1.7

SMILES: CCNC(=O)c1cc(C(=O)NC)c(=O)n(Cc2ccccc2)c1
- CLH [2]: < 0.8 mL/min/g
- Vd [3]: 0.8 L/kg
- bioavailability [4]: 104%
- CLH [5]: < 1.26 mL/min/g
- CLH [6]: < 0.87 mL/min/g
- half-life [7]: 36 min
- clearance [8]: 0.72 L/h/kg
- chromatographic logD [1]: 3

SMILES: CNC(=O)c1cc(C(=O)NC2CCC2)cn(Cc2ccncc2)c1=O
- chromatographic logD [1]: 1.7

SMILES: CNC(=O)c1cc(C(=O)NCCCC2CNCCO2)cn(Cc2ccccc2)c1=O (racemic)
- chromatographic logD [1]: 1.4

SMILES: CNC(=O)c1cc(C(=O)NC2CC2)cn(Cc2ccc(F)cc2)c1=O
- chromatographic logD [1]: 3.2

SMILES: CNC(=O)c1cc(C(=O)NC2CC2)cn(Cc2cccc(OC)c2)c1=O
- chromatographic logD [1]: 3

SMILES: CNC(=O)c1cc(C(=O)NC)c(=O)n(Cc2ccccc2)c1
- chromatographic logD [1]: 2.4

SMILES: CNC(=O)c1cc(C(=O)NC2CC2)cn(CC2CCOCC2)c1=O
- chromatographic logD [1]: 1.5

SMILES: CNC(=O)c1cc(C(=O)NC2CC2)cn(Cc2cccc(C#N)c2)c1=O
- chromatographic logD [1]: 2.6
